# Measurements published in paper PMC10890321, “Identification of Mortalin as the Main Interactor of Mycalin A, a Poly-Brominated C-15 Acetogenin Sponge Metabolite, by MS-Based Proteomics” (Marine Drugs, 2024).
# Biological target: T1, mortalin (GRP75, mitochondrial Stress-70 protein) (Homo sapiens, UniProt P38646)
# T1 construct: gene HSPA9
# Assay: SPR competition (mortalin pre-incubated with MKT-077, injected over immobilized p53)
# Type: binding
# T1 sequence (P38646 47-679): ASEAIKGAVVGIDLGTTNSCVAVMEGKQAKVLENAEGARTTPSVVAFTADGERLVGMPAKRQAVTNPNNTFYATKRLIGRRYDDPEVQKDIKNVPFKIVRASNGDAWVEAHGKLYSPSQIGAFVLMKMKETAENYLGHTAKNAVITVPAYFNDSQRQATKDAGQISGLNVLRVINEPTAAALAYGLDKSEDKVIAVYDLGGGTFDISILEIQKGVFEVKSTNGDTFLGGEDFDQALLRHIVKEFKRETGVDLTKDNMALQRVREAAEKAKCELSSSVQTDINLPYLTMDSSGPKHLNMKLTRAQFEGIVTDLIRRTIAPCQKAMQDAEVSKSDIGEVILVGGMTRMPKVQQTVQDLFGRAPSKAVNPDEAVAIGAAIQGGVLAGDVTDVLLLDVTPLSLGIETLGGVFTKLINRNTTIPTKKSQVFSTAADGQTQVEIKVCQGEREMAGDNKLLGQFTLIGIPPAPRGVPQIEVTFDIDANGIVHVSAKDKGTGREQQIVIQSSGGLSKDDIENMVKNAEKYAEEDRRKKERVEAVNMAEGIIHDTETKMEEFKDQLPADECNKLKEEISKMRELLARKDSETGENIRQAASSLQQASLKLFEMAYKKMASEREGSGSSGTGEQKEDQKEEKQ
# T1 sequence (P04637 whole entry partner): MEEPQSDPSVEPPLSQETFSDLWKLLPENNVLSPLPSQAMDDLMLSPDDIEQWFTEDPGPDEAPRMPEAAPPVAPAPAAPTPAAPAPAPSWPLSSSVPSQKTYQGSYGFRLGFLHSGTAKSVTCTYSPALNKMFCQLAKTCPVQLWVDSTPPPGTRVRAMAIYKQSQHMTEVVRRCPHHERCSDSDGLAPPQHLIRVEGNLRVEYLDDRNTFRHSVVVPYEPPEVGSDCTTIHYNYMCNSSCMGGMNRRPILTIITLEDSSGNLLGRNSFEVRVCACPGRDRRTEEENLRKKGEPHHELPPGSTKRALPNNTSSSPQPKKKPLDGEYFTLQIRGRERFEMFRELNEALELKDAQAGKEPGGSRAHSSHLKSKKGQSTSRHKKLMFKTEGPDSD
smiles,measurement,value
CCn1c(=O)/c(=C2\Sc3ccccc3N2C)s/c1=C\c1cccc[n+]1CC [MKT-077],"SPR competition (mortalin pre-incubated with MKT-077, injected over immobilized)",843.4 nM
